What is called EC50 is the midpoint of the concentration-response curve.

This test addresses T1, F508delCFTR (Homo sapiens, UniProt P13569, DEL508-508).
T1 construct: expressed in transfected cells; host or cells: CFBE41o- (human lung derived epithelial cell line), doxycycline-inducible expression
In words: Cell Surface Expression-Horse Radish Peroxidase (CSE-HRP) assay. The class given is cell-based. The following applies: CFBE41o-F508delCFTR-HRP cells; for Maximum % activity (with co-corrector): with co-corrector (2 μM); for Maximum % activity (with co-corrector) / Maximum % activity (without co-corrector): normalized to on-plate positive control, highest concentration 20 μM. The method in brief:
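CFBE41o- cells expressed F508delCFTR with HRP in the fourth exofacial loop, induced by 0.5 μg/mL doxycycline for 72 h at 37 °C. Compounds alone or with 2 μM co-corrector ran 18–24 h at 33 °C, 8-point 3-fold from 20 μM. Washed-cell luminol luminescence was normalized to DMSO and positive control, fitted sigmoidally for EC50 (three plates).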

The mark [1] stands for this setting: test compound without co-corrector, 18-24 hours at 33° C., read-out: EC50 (without co-corrector).
Where [2] appears, read: with co-corrector (2 μM of 3-[(2R,4R)-4-({[1-(2,2-difluoro-1,3-benzodioxol-5-yl)cyclopropyl]carbonyl}amino)-7-methoxy-3,4-dihydro-2H-chromen-2-yl]benzoic acid), read-out: EC50 (with co-corrector).

Like-named read-outs stand apart in the source and are kept apart here. Where only a bound is given, the exact number is not on record here.

T1 sequence (P13569 with tags, fused parts or gaps DEL508-508): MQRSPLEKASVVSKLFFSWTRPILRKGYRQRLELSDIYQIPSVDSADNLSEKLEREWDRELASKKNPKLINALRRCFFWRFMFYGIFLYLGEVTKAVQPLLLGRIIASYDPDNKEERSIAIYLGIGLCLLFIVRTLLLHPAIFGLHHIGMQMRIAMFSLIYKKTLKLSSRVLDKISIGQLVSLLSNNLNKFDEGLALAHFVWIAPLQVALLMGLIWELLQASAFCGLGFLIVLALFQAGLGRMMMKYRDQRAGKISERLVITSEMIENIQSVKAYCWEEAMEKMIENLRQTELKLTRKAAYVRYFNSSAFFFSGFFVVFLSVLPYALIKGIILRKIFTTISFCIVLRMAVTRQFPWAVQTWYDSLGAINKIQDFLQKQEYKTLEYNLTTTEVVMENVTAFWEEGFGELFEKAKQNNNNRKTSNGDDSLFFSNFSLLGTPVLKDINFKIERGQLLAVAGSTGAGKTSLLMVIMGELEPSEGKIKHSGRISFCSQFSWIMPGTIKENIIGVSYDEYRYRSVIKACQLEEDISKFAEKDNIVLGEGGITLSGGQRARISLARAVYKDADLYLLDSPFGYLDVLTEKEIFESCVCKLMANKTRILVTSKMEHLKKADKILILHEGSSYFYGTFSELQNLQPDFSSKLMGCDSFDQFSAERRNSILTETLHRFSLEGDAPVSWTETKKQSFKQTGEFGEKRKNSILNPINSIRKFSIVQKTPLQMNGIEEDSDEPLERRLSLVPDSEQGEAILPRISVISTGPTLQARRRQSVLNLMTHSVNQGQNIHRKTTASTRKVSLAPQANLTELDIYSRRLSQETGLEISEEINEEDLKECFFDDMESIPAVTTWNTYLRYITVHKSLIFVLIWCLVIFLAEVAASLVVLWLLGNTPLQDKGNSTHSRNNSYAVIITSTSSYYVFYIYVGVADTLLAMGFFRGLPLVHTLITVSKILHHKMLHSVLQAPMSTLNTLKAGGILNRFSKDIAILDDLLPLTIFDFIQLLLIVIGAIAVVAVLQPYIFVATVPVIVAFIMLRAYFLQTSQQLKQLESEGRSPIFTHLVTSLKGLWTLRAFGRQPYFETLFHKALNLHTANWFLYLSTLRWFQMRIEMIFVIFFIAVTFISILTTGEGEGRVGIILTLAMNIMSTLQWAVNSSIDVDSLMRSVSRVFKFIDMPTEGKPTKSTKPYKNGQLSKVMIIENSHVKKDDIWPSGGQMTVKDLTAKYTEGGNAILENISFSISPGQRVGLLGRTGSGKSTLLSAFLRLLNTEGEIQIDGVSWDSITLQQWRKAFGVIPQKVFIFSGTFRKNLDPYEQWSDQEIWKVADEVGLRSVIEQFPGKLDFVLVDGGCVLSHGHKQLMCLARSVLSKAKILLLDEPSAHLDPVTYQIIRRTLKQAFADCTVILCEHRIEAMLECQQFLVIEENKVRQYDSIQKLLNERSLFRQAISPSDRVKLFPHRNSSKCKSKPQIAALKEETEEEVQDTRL

Take `COc1ncc(C(F)(F)F)cc1CO[C@H]1[C@H](C(C)(C)C)[C@@H](C(=O)O)N(C(=O)[C@@H]2CCCCO2)[C@H]1c1cccc(C(C)(C)C)c1` [Example 158, (2S,3R,4S,5S)-3-tert-butyl-5-(3-tert-butylphenyl)-4-{[2-methoxy-5-(trifluoromethyl)pyridin-3-yl]methoxy}-1-[(2S)-oxane-2-carbonyl]pyrrolidine-2-carboxylic acid]: the “Maximum % activity (with co-corrector)” value was “+++ (≥350)”; the “Maximum % activity (without co-corrector)” value was “++ (≥100 and <200)”. Further, the EC50 under setting [1] was under 1000 nM. Besides, the 50% effective concentration (EC50) under setting [2] was under 1000 nM.
As to `COc1ncc(C2CCCC2)cc1CO[C@H]1[C@H](C(C)(C)C)[C@@H](C(=O)O)N(C(=O)C2CCCCC2)[C@H]1c1ccccc1F` [Example 57, (2S,3R,4S,5S)-3-tert-butyl-1-(cyclohexanecarbonyl)-4-[(5-cyclopentyl-2-methoxypyridin-3-yl)methoxy]-5-(2-fluorophenyl)pyrrolidine-2-carboxylic acid], the “Maximum % activity (with co-corrector)” value was “+++ (≥350)”; the “Maximum % activity (without co-corrector)” value was “++ (≥100 and <200)”. For the same molecule, the EC50 under setting [1] was 1000 to 10000 nM. For the same molecule, under setting [2], the EC50 lay in the range of 1000 to 10000 nM.
In the case of `COc1cc(C(F)(F)F)ccc1CO[C@H]1[C@H](C(C)(C)C)[C@@H](C(=O)O)N(C(=O)[C@@H]2CCCCO2)[C@H]1c1ccccc1C` [Example 175, (2S,3R,4S,5S)-3-tert-butyl-4-{[2-methoxy-4-(trifluoromethyl)phenyl]methoxy}-5-(2-methylphenyl)-1-[(2S)-oxane-2-carbonyl]pyrrolidine-2-carboxylic acid], the “Maximum % activity (with co-corrector)” value is on record as “+++ (≥350)” and the “Maximum % activity (without co-corrector)” value is “+++ (≥200)”. Moreover, the EC50 under setting [1] fell in the range of 1000 to 10000 nM. Further, the EC50 under setting [2] is under 1000 nM.
For `COc1ncc(C2CCC2)cc1CO[C@H]1[C@H](C(C)(C)C)[C@@H](C(=O)O)N(C(=O)OC(C)C)[C@H]1c1ccccc1C1CC1` [Example 168, (2S,3R,4S,5S)-3-tert-butyl-4-[(5-cyclobutyl-2-methoxypyridin-3-yl)methoxy]-5-(2-cyclopropylphenyl)-1-{[(propan-2-yl)oxy]carbonyl}pyrrolidine-2-carboxylic acid], the “Maximum % activity (with co-corrector)” value is given as “+++ (≥350)”; the “Maximum % activity (without co-corrector)” value is “++ (≥100 and <200)”. In addition, the EC50 under setting [1] lay in the range of 1000 to 10000 nM. Further, the EC50 under setting [2] was in the range of 1000 to 10000 nM.
For `COc1ncc(C2CCC2)cc1CO[C@H]1[C@H](C(C)(C)C)[C@@H](C(=O)O)N(C(=O)C2CCCCC2)[C@H]1c1ccccc1C(C)C` [Example 295, (2S,3R,4S,5S)-3-tert-butyl-4-[(5-cyclobutyl-2-methoxypyridin-3-yl)methoxy]-1-(cyclohexanecarbonyl)-5-[2-(propan-2-yl)phenyl]pyrrolidine-2-carboxylic acid], the “Maximum % activity (with co-corrector)” value is “+++ (≥350)” and the “Maximum % activity (without co-corrector)” value is given as “+++ (≥200)”. Besides, the concentration giving a half-maximal response (EC50) under setting [1] is under 1000 nM. The EC50 under setting [2] is under 1000 nM.
As for `COc1ncc(C(F)(F)F)cc1CO[C@H]1[C@H](C(C)(C)C)[C@@H](C(=O)O)N(C(=O)[C@@H]2CCCCO2)[C@H]1c1ccccc1-c1ccccc1C` [Example 195, (2S,3R,4S,5S)-3-tert-butyl-4-{[2-methoxy-5-(trifluoromethyl)pyridin-3-yl]methoxy}-5-(2′-methyl[1,1′-biphenyl]-2-yl)-1-[(2S)-oxane-2-carbonyl]pyrrolidine-2-carboxylic acid], the “Maximum % activity (with co-corrector)” value is given as “+++ (≥350)” and the “Maximum % activity (without co-corrector)” value is on record as “+++ (≥200)”. Under setting [1], the EC50 is 1000 to 10000 nM. Under setting [2], the EC50 lay within 1000 to 10000 nM.
`COc1nc2ccccc2cc1CO[C@H]1[C@H](C(C)(C)C)[C@@H](C(=O)O)N(C(=O)OC(C)C)[C@H]1c1ccccc1C1CC1` [Example 143, (2S,3R,4S,5S)-3-tert-butyl-5-(2-cyclopropylphenyl)-4-[(2-methoxyquinolin-3-yl)methoxy]-1-{[(propan-2-yl)oxy]carbonyl}pyrrolidine-2-carboxylic acid]: the “Maximum % activity (with co-corrector)” value was “+++ (≥350)”; the “Maximum % activity (without co-corrector)” value was “++ (≥100 and <200)”. In addition, the EC50 under setting [1] was in the range of 1000 to 10000 nM. For the same molecule, the EC50 under setting [2] was 1000 to 10000 nM.
For `COc1ncc(C(F)(F)F)cc1CO[C@H]1[C@H](C(C)(C)C)[C@@H](C(=O)O)N(C(=O)[C@@H]2CCCCO2)[C@H]1c1ccccc1-c1ccc(=O)n(C)c1` [Example 181, (2S,3R,4S,5S)-3-tert-butyl-4-{[2-methoxy-5-(trifluoromethyl)pyridin-3-yl]methoxy}-5-[2-(1-methyl-6-oxo-1,6-dihydropyridin-3-yl)phenyl]-1-[(2S)-oxane-2-carbonyl]pyrrolidine-2-carboxylic acid], the “Maximum % activity (with co-corrector)” value is “++ (≥150 and <350)”; the “Maximum % activity (without co-corrector)” value was “+ (<100)”. Also, the 50% effective concentration (EC50) under setting [1] was over 10000 nM. Also, the EC50 under setting [2] fell in the range of 1000 to 10000 nM.
As for `COc1ncc(C2CCC2)cc1CO[C@H]1[C@H](C(C)(C)C)[C@@H](C(=O)O)N(C(=O)C2(C(F)(F)F)CCCC2)[C@H]1c1cccnc1OC(C)C` [Example 276, (2S,3R,4S,5S)-3-tert-butyl-4-[(5-cyclobutyl-2-methoxypyridin-3-yl)methoxy]-5-{2-[(propan-2-yl)oxy]pyridin-3-yl}-1-[1-(trifluoromethyl)cyclopentane-1-carbonyl]pyrrolidine-2-carboxylic acid], the “Maximum % activity (with co-corrector)” value is “++ (≥150 and <350)”; the “Maximum % activity (without co-corrector)” value was “+ (<100)”. Further, the EC50 under setting [1] was over 10000 nM. Further, the concentration for a half-maximal effect (EC50) under setting [2] is under 1000 nM.
For the molecule `COc1ccc(C(F)(F)F)cc1CO[C@H]1[C@H](C(C)(C)C)[C@@H](C(=O)NS(=O)(=O)N(C)C)N(C(=O)C2CCCCC2)[C@H]1c1ccccc1` [Example 25, (2S,3R,4S,5S)-3-tert-butyl-1-(cyclohexanecarbonyl)-N-(dimethylsulfamoyl)-4-{[2-methoxy-5-(trifluoromethyl)phenyl]methoxy}-5-phenylpyrrolidine-2-carboxamide], the “Maximum % activity (with co-corrector)” value was “++ (≥150 and <350)”; the “Maximum % activity (without co-corrector)” value is “+ (<100)”. The EC50 under setting [1] is over 10000 nM. Moreover, the EC50 under setting [2] lay in the range of 1000 to 10000 nM.
As for `COc1ncc(Br)cc1CO[C@H]1[C@H](C(C)(C)C)[C@@H](C(=O)O)N(C(=O)C2CCCCC2)[C@H]1c1ccccc1F` [Example 51, (2S,3R,4S,5S)-4-[(5-bromo-2-methoxypyridin-3-yl)methoxy]-3-tert-butyl-1-(cyclohexanecarbonyl)-5-(2-fluorophenyl)pyrrolidine-2-carboxylic acid], the “Maximum % activity (with co-corrector)” value is recorded as “+++ (≥350)”; the “Maximum % activity (without co-corrector)” value was “++ (≥100 and <200)”. Further, the EC50 under setting [1] fell in the range of 1000 to 10000 nM. For the same molecule, the 50% effective concentration (EC50) under setting [2] lay in the range of 1000 to 10000 nM.
For `COc1ncc(C(F)(F)F)cc1CO[C@H]1[C@H](C(C)(C)C)[C@@H](C(=O)O)N(C(=O)[C@H]2CCCCO2)[C@H]1c1ccccc1` [Example 91, (2S,3R,4S,5S)-3-tert-butyl-4-{[2-methoxy-5-(trifluoromethyl)pyridin-3-yl]methoxy}-1-[(2R)-oxane-2-carbonyl]-5-phenylpyrrolidine-2-carboxylic acid], the “Maximum % activity (with co-corrector)” value is recorded as “+++ (≥350)”; the “Maximum % activity (without co-corrector)” value was “++ (≥100 and <200)”. Further, the concentration for a half-maximal effect (EC50) under setting [1] fell in the range of 1000 to 10000 nM. In addition, the EC50 under setting [2] lay within 1000 to 10000 nM.
As to `COc1ncc(C(F)(F)F)cc1CO[C@H]1[C@H](C(C)(C)C)[C@@H](C(=O)O)N(C(=O)[C@@H]2CCCO2)[C@H]1c1cccc(C(C)C)c1` [Example 117, (2S,3R,4S,5S)-3-tert-butyl-4-{[2-methoxy-5-(trifluoromethyl)pyridin-3-yl]methoxy}-1-[(2S)-oxolane-2-carbonyl]-5-[3-(propan-2-yl)phenyl]pyrrolidine-2-carboxylic acid], the “Maximum % activity (with co-corrector)” value was “++ (≥150 and <350)”; the “Maximum % activity (without co-corrector)” value was “+ (<100)”. Also, under setting [1], the concentration for a half-maximal effect (EC50) is under 1000 nM. Under setting [2], the EC50 was under 1000 nM.
`COc1ncc(C2(C)CC2)cc1CO[C@H]1[C@H](C(C)(C)C)[C@@H](C(=O)O)N(C(=O)C2CCCCC2)[C@H]1c1cccnc1OC(C)C` [Example 287, (2S,3R,4S,5S)-3-tert-butyl-1-(cyclohexanecarbonyl)-4-{[2-methoxy-5-(1-methylcyclopropyl)pyridin-3-yl]methoxy}-5-{2-[(propan-2-yl)oxy]pyridin-3-yl}pyrrolidine-2-carboxylic acid]: the “Maximum % activity (with co-corrector)” value is “+++ (≥350)”; the “Maximum % activity (without co-corrector)” value was “++ (≥100 and <200)”. Moreover, the EC50 under setting [1] was under 1000 nM. In addition, the EC50 under setting [2] was under 1000 nM.
`COc1ncc(C(F)(F)F)cc1CO[C@H]1[C@H](C(C)(C)C)[C@@H](C(=O)O)N(C(=O)[C@@H]2CCCCO2)[C@H]1c1ccccc1-c1cccc(OC(F)(F)F)c1` [Example 201, (2S,3R,4S,5S)-3-tert-butyl-4-{[2-methoxy-5-(trifluoromethyl)pyridin-3-yl]methoxy}-1-[(2S)-oxane-2-carbonyl]-5-[3′-(trifluoromethoxy) [1,1′-biphenyl]-2-yl]pyrrolidine-2-carboxylic acid]: the “Maximum % activity (with co-corrector)” value is “+++ (≥350)” and the “Maximum % activity (without co-corrector)” value is “+++ (≥200)”. Moreover, under setting [1], the concentration giving a half-maximal response (EC50) lay in the range of 1000 to 10000 nM. Further, the concentration for a half-maximal effect (EC50) under setting [2] is 1000 to 10000 nM.

(Values after patent US10399940B2, “Substituted pyrrolidines and methods of use” (AbbVie S.à.r.l., priority 2016, dated 2019).)
